The experiment has as its target T1, hGPR40 (Homo sapiens, UniProt O14842).
T1 construct: 3x FLAG; expressed in transfected cells
Briefly: FDSS-Based Intracellular Calcium Assay. The class given is cell-based. Conditions: cells expressing GPR40, intracellular Ca2+ response. On the procedure:
FDSS-Based Intracellular Calcium Assay
Cell lines expressing GPR40 are generated using the pDEST 3× flag gene expression system and are cultured in culture medium comprising the following components: F12 (Gibco #11765), 10% lipid deprived fetal bovine serum, 250 μg/ml zeocin and 500 μg/ml G418. To conduct the fluorescent imaging plate reader (FLIPR)-based calcium flux assay to measure intracellular Ca^2+ response, cells expressing GPR40 are plated on 384 well plates (BD Biocoat #356697) at a density of 20,000 cells/20 μL medium per well in phenol red and serum-free DMEM (Gibco #21063-029) and incubated overnight. […] Compounds are dissolved in DMSO and diluted to desired concentrations with assay buffer and added to the cells as 3x solution (20 μL per well). Run fluorescence/luminescence reader FDSS (Hamamatsu) to read intracellular Ca^2+ response.
(In general: A change in cytosolic calcium serves as a functional read-out for many receptors and channels.)
T1 sequence (O14842 whole entry): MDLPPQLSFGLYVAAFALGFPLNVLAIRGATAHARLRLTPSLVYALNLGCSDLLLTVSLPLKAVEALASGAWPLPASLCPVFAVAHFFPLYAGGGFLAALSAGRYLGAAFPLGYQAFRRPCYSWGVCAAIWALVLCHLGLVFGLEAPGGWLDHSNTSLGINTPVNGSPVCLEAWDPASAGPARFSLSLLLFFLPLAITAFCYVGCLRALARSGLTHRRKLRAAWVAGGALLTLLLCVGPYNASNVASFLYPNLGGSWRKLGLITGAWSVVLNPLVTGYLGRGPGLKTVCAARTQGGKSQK
As to `COc1cccc(-c2ccc(Cc3ccc(N4N=C(C(F)(F)F)CC4CC(=O)O)cc3)c(C)c2)c1` (single isomer, unassigned) [Example 26, Isomer 2, 2-(1-(4-((3′-methoxy-3-methylbiphenyl-4-yl)methyl)phenyl)-3-(trifluoromethyl)-4,5-dihydro-1H-pyrazol-5-yl)acetic acid], the EC50 came out at 120 nM.
With `COc1cc(-c2ccc(Cc3ccc(N4N=C(C(F)(F)F)CC4CC(=O)O)cc3)c(C)c2)c(F)cn1` (single isomer, unassigned) [Example 27, Isomer 1, 2-(1-(4-(4-(5-fluoro-2-methoxypyridin-4-yl)-2-methylbenzyl)phenyl)-3-(trifluoromethyl)-4,5-dihydro-1H-pyrazol-5-yl)acetic acid], the EC50 came out at 360 nM.
Consider `COc1cc(-c2ccc(Cc3ccc(N4N=C(C(F)(F)F)CC4CC(=O)O)cc3)c(C)c2)c(F)cn1` (single isomer, unassigned) [Example 27, Isomer 2, 2-(1-(4-(4-(5-fluoro-2-methoxypyridin-4-yl)-2-methylbenzyl)phenyl)-3-(trifluoromethyl)-4,5-dihydro-1H-pyrazol-5-yl)acetic acid], for which the EC50 is 150 nM.
For the molecule `COc1ccc(F)c(-c2ccc(Cc3ccc(N4N=C(C#N)CC4CC(=O)O)cc3)c(C)c2)c1` (single isomer, unassigned) [Example 34, Isomer 1, 2-(3-cyano-1-(4-((2′-fluoro-5′-methoxy-3-methylbiphenyl-4-yl)methyl)phenyl)-4,5-dihydro-1H-pyrazol-5-yl)acetic acid], the EC50 stood at 150 nM.
Turning to `COc1ccc(F)c(-c2ccc(Cc3ccc(N4N=C(C#N)CC4CC(=O)O)cc3)c(C)c2)c1` (single isomer, unassigned) [Example 34, Isomer 2, 2-(3-cyano-1-(4-((2′-fluoro-5′-methoxy-3-methylbiphenyl-4-yl)methyl)phenyl)-4,5-dihydro-1H-pyrazol-5-yl)acetic acid], the concentration for a half-maximal effect (EC50) was 560 nM.
In the case of `COc1ccc(F)c(-c2ccc(Cc3ccc(N4N=C(C(F)(F)F)C(CC(C)C)C4CC(=O)O)cc3)c(C)c2)c1` (single isomer, unassigned) [Example 41, Isomer 2, 2-(1-(4-((2′-fluoro-5′-methoxy-3-methylbiphenyl-4-yl)methyl)phenyl)-4-isobutyl-3-(trifluoromethyl)-4,5-dihydro-1H-pyrazol-5-yl)acetic acid] it was 95 nM; in that of `COc1ccc(F)c(-c2ccc(Oc3ccc(N4N=C(C(F)(F)F)CC4CC(=O)O)cc3)c(Cl)c2)c1` (single isomer, unassigned) [Example 42, Isomer 1, 2-(1-(4-(3-chloro-2′-fluoro-5′-methoxybiphenyl-4-yloxy)phenyl)-3-(trifluoromethyl)-4,5-dihydro-1H-pyrazol-5-yl)acetic acid], 620 nM; in that of `COc1ccc(F)c(-c2ccc(Oc3ccc(N4N=C(C(F)(F)F)CC4CC(=O)O)cc3)c(Cl)c2)c1` (single isomer, unassigned) [Example 42, Isomer 2, 2-(1-(4-(3-chloro-2′-fluoro-5′-methoxybiphenyl-4-yloxy)phenyl)-3-(trifluoromethyl)-4,5-dihydro-1H-pyrazol-5-yl)acetic acid], 290 nM.
To `COc1ccc(F)c(-c2ccc(Cc3ccc(N4N=C(C(F)(F)F)C(C5CC5)C4CC(=O)O)cc3)c(C)c2)c1` (single isomer, unassigned) [Example 43, Isomer 1, 2-(4-cyclopropyl-1-(4-((2′-fluoro-5′-methoxy-3-methylbiphenyl-4-yl)methyl)phenyl)-3-(trifluoromethyl)-4,5-dihydro-1H-pyrazol-5-yl)acetic acid] belongs 3280 nM; to `COc1ccc(F)c(-c2ccc(Cc3ccc(N4N=C(C(F)(F)F)C(C5CC5)C4CC(=O)O)cc3)c(C)c2)c1` (single isomer, unassigned) [Example 43, Isomer 2, 2-(4-cyclopropyl-1-(4-((2′-fluoro-5′-methoxy-3-methylbiphenyl-4-yl)methyl)phenyl)-3-(trifluoromethyl)-4,5-dihydro-1H-pyrazol-5-yl)acetic acid], 90 nM.
Consider `CCC1C(C(F)(F)F)=NN(c2ccc(Cc3ccc(-c4cc(OC)ccc4F)cc3C)cc2)C1CC(=O)O` (single isomer, unassigned) [Example 44, Isomer 1, 2-(4-ethyl-1-(4-((2′-fluoro-5′-methoxy-3-methylbiphenyl-4-yl)methyl)phenyl)-3-(trifluoromethyl)-4,5-dihydro-1H-pyrazol-5-yl)acetic acid], for which the EC50 is 1310 nM.
In the case of `CCC1C(C(F)(F)F)=NN(c2ccc(Cc3ccc(-c4cc(OC)ccc4F)cc3C)cc2)C1CC(=O)O` (single isomer, unassigned) [Example 44, Isomer 2, 2-(4-ethyl-1-(4-((2′-fluoro-5′-methoxy-3-methylbiphenyl-4-yl)methyl)phenyl)-3-(trifluoromethyl)-4,5-dihydro-1H-pyrazol-5-yl)acetic acid] it was 20 nM; in that of `COc1ccc(F)c(-c2ccc(Cc3ccc(N4N=C(C(F)(F)F)C(C(C)C)C4CC(=O)O)cc3)c(C)c2)c1` (single isomer, unassigned) [Example 45, Isomer 1, 2-(1-(4-((2′-fluoro-5′-methoxy-3-methylbiphenyl-4-yl)methyl)phenyl)-4-isopropyl-3-(trifluoromethyl)-4,5-dihydro-1H-pyrazol-5-yl)acetic acid], 3820 nM.
For the molecule `COc1ccc(F)c(-c2ccc(Cc3ccc(N4N=C(C(F)(F)F)C(C(C)C)C4CC(=O)O)cc3)c(C)c2)c1` (single isomer, unassigned) [Example 45, Isomer 2, 2-(1-(4-((2′-fluoro-5′-methoxy-3-methylbiphenyl-4-yl)methyl)phenyl)-4-isopropyl-3-(trifluoromethyl)-4,5-dihydro-1H-pyrazol-5-yl)acetic acid], the EC50 was 70 nM.
To `COc1ccc(F)c(-c2ccc(Cc3ccc(N4N=C(C(F)(F)F)C(CC5CC5)C4CC(=O)O)cc3)c(C)c2)c1` (single isomer, unassigned) [Example 46, Isomer 1, 2-(4-(cyclopropylmethyl)-1-(4-((2′-fluoro-5′-methoxy-3-methylbiphenyl-4-yl)methyl)phenyl)-3-(trifluoromethyl)-4,5-dihydro-1H-pyrazol-5-yl)acetic acid] belongs 50 nM; to `COc1ccc(F)c(-c2ccc(Cc3ccc(N4N=C(C(F)(F)F)C(CC5CC5)C4CC(=O)O)cc3)c(C)c2)c1` (single isomer, unassigned) [Example 46, Isomer 2, 2-(4-(cyclopropylmethyl)-1-(4-((2′-fluoro-5′-methoxy-3-methylbiphenyl-4-yl)methyl)phenyl)-3-(trifluoromethyl)-4,5-dihydro-1H-pyrazol-5-yl)acetic acid], 1910 nM; to `COc1ccc(F)c(-c2ccc(Cc3ccc(N4N=C(C(F)(F)F)C(c5ccccc5)C4CC(=O)O)cc3)c(C)c2)c1` (single isomer, unassigned) [Example 47, Isomer 1, 2-(1-(4-((2′-fluoro-5′-methoxy-3-methylbiphenyl-4-yl)methyl)phenyl)-4-phenyl-3-(trifluoromethyl)-4,5-dihydro-1H-pyrazol-5-yl)acetic acid], 890 nM.

Usually EC50 stands for the concentration needed to bring the measured effect to its halfway point.

Source of the values: patent US9656963B2 (BRISTOL-MYERS SQUIBB COMPANY, priority 2012, dated 2017).
